pEC50, pKd: −log10 of the molar value. ≈ marks a conversion by molar mass, not a printed value. Calls of active or inactive are those of the source. No cut-off for these calls is given here.
Tests used:
[1] = molecular target: T1, Retinoic acid receptor RXR-gamma (Homo sapiens, UniProt P48443); assay: Agonist activity at human Gal4-DBD fused RXRgamma LBD expressed in HEK293T cells after 12 to 14 hrs by luciferase reporter gene assay; type: cell-based; settings: read-out: EC50
T1 sequence (P48443 whole entry): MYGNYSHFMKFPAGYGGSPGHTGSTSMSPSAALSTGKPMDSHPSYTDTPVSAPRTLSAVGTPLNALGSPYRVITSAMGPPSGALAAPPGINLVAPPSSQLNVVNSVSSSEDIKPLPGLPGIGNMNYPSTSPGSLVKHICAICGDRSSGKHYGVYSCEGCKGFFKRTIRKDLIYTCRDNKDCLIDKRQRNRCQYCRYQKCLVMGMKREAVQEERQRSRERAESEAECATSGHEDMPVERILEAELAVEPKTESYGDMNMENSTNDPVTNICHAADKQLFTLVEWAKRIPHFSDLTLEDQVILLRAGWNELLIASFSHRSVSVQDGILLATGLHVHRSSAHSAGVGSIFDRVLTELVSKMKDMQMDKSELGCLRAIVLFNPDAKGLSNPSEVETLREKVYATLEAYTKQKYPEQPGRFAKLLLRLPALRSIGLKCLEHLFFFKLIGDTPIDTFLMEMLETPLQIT

[2] = molecular target: T2, Retinoic acid receptor RXR-alpha (Homo sapiens) (UniProt P19793); assay: Agonist activity at human Gal4-DBD fused RXRalpha LBD expressed in HEK293T cells at 10 uM after 12 to 14 hrs by luciferase reporter gene assay; type: cell-based
T2 sequence (whole entry): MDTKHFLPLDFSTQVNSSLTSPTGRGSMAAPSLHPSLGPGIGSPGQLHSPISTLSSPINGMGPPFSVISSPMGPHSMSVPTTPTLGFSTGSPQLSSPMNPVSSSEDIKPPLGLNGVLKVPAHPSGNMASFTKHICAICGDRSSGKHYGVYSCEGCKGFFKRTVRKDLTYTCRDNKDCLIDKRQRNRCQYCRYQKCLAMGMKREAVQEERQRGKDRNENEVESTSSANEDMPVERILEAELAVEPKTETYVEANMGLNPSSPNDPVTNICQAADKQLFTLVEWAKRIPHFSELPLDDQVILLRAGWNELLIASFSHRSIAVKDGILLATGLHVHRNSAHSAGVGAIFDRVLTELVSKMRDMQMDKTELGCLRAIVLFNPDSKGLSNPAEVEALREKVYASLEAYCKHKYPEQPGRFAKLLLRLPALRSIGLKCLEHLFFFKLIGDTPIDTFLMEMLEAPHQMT

[3] = test system: HepG2; assay: Cytotoxicity against human HepG2 cells up to 100 uM after 48 hrs by WST1 assay; type: cell-based; settings: hepg2, 48 h
[4] = molecular target: T3, Retinoic acid receptor RXR-beta (Homo sapiens, UniProt P28702); assay: Agonist activity at human Gal4-DBD fused RXRbeta LBD expressed in HEK293T cells after 12 to 14 hrs by luciferase reporter gene assay; type: cell-based; settings: read-out: EC50
T3 sequence (P28702 whole entry): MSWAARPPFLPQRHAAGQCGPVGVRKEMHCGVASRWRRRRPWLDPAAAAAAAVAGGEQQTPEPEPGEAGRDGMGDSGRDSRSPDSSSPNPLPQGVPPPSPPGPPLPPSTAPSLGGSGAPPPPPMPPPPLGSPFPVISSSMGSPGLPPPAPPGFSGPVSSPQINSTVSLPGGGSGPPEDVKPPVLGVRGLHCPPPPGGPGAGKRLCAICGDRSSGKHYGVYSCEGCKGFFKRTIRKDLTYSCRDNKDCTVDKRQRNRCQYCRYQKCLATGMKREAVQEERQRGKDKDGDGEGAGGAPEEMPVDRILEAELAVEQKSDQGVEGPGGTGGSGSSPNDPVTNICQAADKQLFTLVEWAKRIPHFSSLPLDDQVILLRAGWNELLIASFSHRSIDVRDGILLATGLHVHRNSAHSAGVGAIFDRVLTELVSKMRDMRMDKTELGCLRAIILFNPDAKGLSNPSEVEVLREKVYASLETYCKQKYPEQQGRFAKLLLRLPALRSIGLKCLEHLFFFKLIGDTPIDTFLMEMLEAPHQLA

[5] = molecular target: T2, Retinoic acid receptor RXR-alpha (Homo sapiens); assay: Agonist activity at human Gal4-DBD fused RXRalpha LBD expressed in HEK293T cells after 12 to 14 hrs by luciferase reporter gene assay relative to bexarotene; type: cell-based
[6] = molecular target: T4, Retinoic acid receptor alpha (Homo sapiens) (UniProt P10276); assay: Agonist activity at human Gal4-DBD fused RARalpha LBD expressed in HEK293T cells at 30 uM after 12 to 14 hrs by luciferase reporter gene assay; type: cell-based
T4 sequence (whole entry): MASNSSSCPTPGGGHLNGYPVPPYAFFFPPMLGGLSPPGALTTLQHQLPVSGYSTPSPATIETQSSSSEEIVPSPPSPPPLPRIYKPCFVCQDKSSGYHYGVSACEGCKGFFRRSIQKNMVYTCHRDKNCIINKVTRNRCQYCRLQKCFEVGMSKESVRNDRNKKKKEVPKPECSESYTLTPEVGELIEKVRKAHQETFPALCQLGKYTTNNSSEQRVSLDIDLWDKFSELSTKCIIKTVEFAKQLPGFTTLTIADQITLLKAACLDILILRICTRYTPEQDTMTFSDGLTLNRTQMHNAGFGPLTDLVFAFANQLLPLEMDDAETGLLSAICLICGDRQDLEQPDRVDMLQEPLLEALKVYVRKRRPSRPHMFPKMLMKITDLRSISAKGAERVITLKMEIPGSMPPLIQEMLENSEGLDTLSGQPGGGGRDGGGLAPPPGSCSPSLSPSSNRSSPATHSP

[7] = molecular target: T5, Retinoic acid receptor RXR-beta (Homo sapiens) (UniProt P28702); assay: Agonist activity at human Gal4-DBD fused RXRbeta LBD expressed in HEK293T cells after 12 to 14 hrs by luciferase reporter gene assay relative to bexarotene; type: cell-based
T5 sequence (whole entry): T3 sequence (P28702 whole entry)

[8] = molecular target: T6, Retinoic acid receptor RXR-gamma (Homo sapiens) (UniProt P48443); assay: Agonist activity at human Gal4-DBD fused RXRgamma LBD expressed in HEK293T cells after 12 to 14 hrs by luciferase reporter gene assay relative to bexarotene; type: cell-based
T6 sequence (whole entry): T1 sequence (P48443 whole entry)

[9] = molecular target: T7, Retinoic acid receptor gamma (Homo sapiens) (UniProt P13631); assay: Agonist activity at human Gal4-DBD fused RARgamma LBD expressed in HEK293T cells at 30 uM after 12 to 14 hrs by luciferase reporter gene assay; type: cell-based
T7 sequence (whole entry): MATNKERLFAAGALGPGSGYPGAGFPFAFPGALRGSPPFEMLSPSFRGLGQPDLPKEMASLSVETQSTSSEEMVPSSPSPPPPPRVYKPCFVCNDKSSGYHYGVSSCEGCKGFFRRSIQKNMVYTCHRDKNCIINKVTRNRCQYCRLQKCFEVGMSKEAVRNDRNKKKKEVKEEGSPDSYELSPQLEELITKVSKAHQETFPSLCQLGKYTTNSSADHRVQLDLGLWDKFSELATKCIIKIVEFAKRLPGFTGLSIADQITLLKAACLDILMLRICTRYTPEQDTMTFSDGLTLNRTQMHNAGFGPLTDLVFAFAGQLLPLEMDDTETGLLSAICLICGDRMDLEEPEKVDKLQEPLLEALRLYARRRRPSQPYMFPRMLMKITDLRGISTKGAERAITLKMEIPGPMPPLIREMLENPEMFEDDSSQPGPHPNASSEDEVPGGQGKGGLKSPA

[10] = molecular target: T8, Retinoic acid receptor RXR-alpha (Homo sapiens, UniProt P19793); assay: Agonist activity at human Gal4-DBD fused RXRalpha LBD expressed in HEK293T cells after 12 to 14 hrs by luciferase reporter gene assay; type: cell-based; settings: read-out: EC50
T8 sequence (P19793 whole entry): T2 sequence (whole entry)

[11] = molecular target: T9, Retinoic acid receptor beta (Homo sapiens) (UniProt P10826); assay: Agonist activity at human Gal4-DBD fused RARbeta LBD expressed in HEK293T cells at 30 uM after 12 to 14 hrs by luciferase reporter gene assay; type: cell-based
T9 sequence (whole entry): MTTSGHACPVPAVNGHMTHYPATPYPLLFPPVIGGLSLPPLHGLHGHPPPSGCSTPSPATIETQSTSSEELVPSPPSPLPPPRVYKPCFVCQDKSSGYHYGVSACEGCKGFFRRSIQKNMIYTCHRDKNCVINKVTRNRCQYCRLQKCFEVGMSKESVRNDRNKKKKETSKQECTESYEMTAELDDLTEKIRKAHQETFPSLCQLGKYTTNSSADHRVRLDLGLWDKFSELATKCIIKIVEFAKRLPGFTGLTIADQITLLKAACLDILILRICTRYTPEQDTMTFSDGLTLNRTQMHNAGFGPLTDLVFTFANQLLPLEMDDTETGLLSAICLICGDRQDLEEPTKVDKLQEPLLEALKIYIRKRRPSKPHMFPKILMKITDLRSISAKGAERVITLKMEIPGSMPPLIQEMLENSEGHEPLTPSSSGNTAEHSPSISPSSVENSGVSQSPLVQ

[12] = molecular target: T5, Retinoic acid receptor RXR-beta (Homo sapiens); assay: Agonist activity at human Gal4-DBD fused RXRbeta LBD expressed in HEK293T cells at 30 uM after 12 to 14 hrs by luciferase reporter gene assay; type: cell-based
[13] = molecular target: T2, Retinoic acid receptor RXR-alpha (Homo sapiens); assay: Agonist activity at human Gal4-DBD fused RXRalpha LBD expressed in HEK293T cells at 30 uM after 12 to 14 hrs by luciferase reporter gene assay; type: cell-based
[14] = molecular target: T6, Retinoic acid receptor RXR-gamma (Homo sapiens); assay: Agonist activity at human Gal4-DBD fused RXRgamma LBD expressed in HEK293T cells at 30 uM after 12 to 14 hrs by luciferase reporter gene assay; type: cell-based
[15] = Agonist activity at full length human PPARgamma-RXR expressed in HEK293T cells co-expressing PPRE1-pGL3 after 12 to 14 hrs by luciferase reporter gene assay; type: cell-based; settings: HEK-293T
[16] = molecular target: T8, Retinoic acid receptor RXR-alpha; assay: Binding affinity to human RXRalpha LBD by ITC
[17] = molecular target: T10, Retinoid X receptor (Homo sapiens) (UniProt P28702+P48443+P19793); assay: Agonist activity at RXR in human HepG2 cells assessed as induction of ANGPTL4 mRNA expression at 1 to 10 uM after 8 hrs by RT-PCR analysis; type: cell-based
[18] = species: Homo sapiens; assay: Agonist activity at full length human RXR-LXR expressed in HEK293T cells co-expressing ABCA1-pGL3 at 1 uM after 12 to 14 hrs by luciferase reporter gene assay; type: cell-based
[19] = Synergistic agonist activity at full length human PPARgamma-RXR expressed in HEK293T cells co-expressing PPRE1-pGL3 after 12 to 14 hrs in presence of rosiglitazone by luciferase reporter gene assay; type: cell-based; settings: HEK-293T
[20] = molecular target: T10, Retinoid X receptor (Homo sapiens); assay: Agonist activity at RXR in human HepG2 cells assessed as induction of ADIPOQ mRNA expression at 1 to 10 uM after 8 hrs by RT-PCR analysis; type: cell-based
[21] = Aqueous solubility of the compound after 24 hrs by HPLC analysis; type: physicochemical; settings: water
[22] = Lipophilicity, log P of the compound by HPLC analysis; type: physicochemical; settings: read-out: logP
[23] = species: Homo sapiens; assay: Synergistic agonist activity at full length human RXR-LXR expressed in HEK293T cells co-expressing ABCA1-pGL3 at 1 uM after 12 to 14 hrs in presence of T090 by luciferase reporter gene assay; type: cell-based
[24] = molecular target: T10, Retinoid X receptor (Homo sapiens); assay: Agonist activity at RXR in human HepG2 cells assessed as induction of APOE mRNA expression at 1 to 10 uM after 8 hrs by RT-PCR analysis; type: cell-based
[25] = molecular target: Luciferin 4-monooxygenase (Photinus pyralis) (UniProt P08659); assay: Inhibition of firefly luciferase activity in HEK293T cells co-expressing human Gal4-DBD fused RXRalpha LBD after 12 to 14 hrs by luminescence assay; type: cell-based
[26] = molecular target: Luciferin 4-monooxygenase (Photinus pyralis) (UniProt P08659); assay: Inhibition of firefly luciferase activity in HEK293T cells co-expressing human Gal4-DBD fused RXRgamma LBD after 12 to 14 hrs by luminescence assay; type: cell-based
[27] = molecular target: Luciferin 4-monooxygenase (Photinus pyralis) (UniProt P08659); assay: Inhibition of firefly luciferase activity in HEK293T cells co-expressing human Gal4-DBD fused RXRbeta LBD after 12 to 14 hrs by luminescence assay; type: cell-based

Sequence of Luciferin 4-monooxygenase (Photinus pyralis) (P08659 whole entry, the tested form may be a part): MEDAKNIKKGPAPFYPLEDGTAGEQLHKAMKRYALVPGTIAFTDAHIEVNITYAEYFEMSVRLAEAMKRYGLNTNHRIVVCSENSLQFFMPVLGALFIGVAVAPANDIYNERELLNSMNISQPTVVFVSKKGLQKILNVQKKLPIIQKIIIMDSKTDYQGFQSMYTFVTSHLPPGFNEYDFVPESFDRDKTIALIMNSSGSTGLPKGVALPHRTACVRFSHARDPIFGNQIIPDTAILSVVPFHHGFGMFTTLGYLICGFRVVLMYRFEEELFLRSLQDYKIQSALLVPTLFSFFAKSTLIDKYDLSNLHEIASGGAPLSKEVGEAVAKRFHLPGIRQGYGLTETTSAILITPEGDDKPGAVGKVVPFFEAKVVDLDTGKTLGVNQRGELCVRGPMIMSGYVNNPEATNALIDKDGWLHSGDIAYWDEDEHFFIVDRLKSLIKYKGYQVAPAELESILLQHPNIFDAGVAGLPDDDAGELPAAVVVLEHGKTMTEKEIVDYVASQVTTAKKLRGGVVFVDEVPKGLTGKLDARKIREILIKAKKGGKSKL

With `O=C(O)c1ccc(COc2ccc3c(c2)CCC3)cc1` the pEC50 [1] was 4.77, the Activity [2] was “Active” and the Activity [3] was “Non-Toxic”. The pEC50 [4] was 5.06, the Emax [5] was 29% and the Activity [6] was “Active”. The Emax [7] was 28%, the Emax [8] was 5% and the Activity [9] was “Active”. For the same molecule, the pEC50 [10] was 5.17 and the Activity [11] was “Active”.
For `O=C(O)c1ccc(C(=O)Nc2ccc3c(c2)CCC3)cc1`, the Activity [12] was “inactive”, the Activity [13] was “inactive” and the Activity [14] was “inactive”.
`O=C(O)c1ccc(COc2ccccc2-c2ccccc2)cc1` gave a pEC50 [15] of 6.00, a pKd [16] of 7.02 and a pEC50 [1] of 5.80. For the same molecule, the Activity [17] was “Active”, the Activity [3] was “Non-Toxic” and the Activity [18] was “Active”. For the same molecule, the pEC50 [19] was 6.33, the pEC50 [4] was 6.51 and the Emax [5] was 70%. For the same molecule, the Activity [20] was “Active”, the Emax [7] was 44% and the solubility at 24 h [21] was 1.31 µg/mL (≈ 4.3 µM). The logP [22] was 2.03, the Emax [8] was 94% and the Activity [23] was “Active”. For the same molecule, the Activity [24] was “Active” and the pEC50 [10] was 6.55.
For `O=C(O)c1cccc(COc2ccc3c(c2)CCC3)c1`, the inhibition [25] was “Active”, the inhibition [26] was “Active” and the inhibition [27] was “Active”.
